Reference: patent publication US10464926B2, “Heterobicyclic compounds and their use for the treatment of tuberculosis” (OTSUKA PHARMACEUTICAL CO., LTD., priority 2014, dated 2019)

| Compound | melting point |
| --- | --- |
| CCOc1cc(F)c(N2CCC(O)(COc3ccc(F)c4c3CCC(=O)N4)CC2)cc1F | 174.1 to 174.5 °C |
| CCOc1cc(F)c(N2CCC(O)(COc3ccc(Cl)c4c3CCC(=O)N4)CC2)cc1F | 169 to 169.2 °C |
| O=C1CCc2c(OCC3(O)CCN(c4ccc(OC(F)(F)F)cc4F)CC3)ccc(Cl)c2N1 | 149.7 to 149.9 °C |
| COc1cc(F)c(N2CCC(O)(COc3ccc(Cl)c4c3CCC(=O)N4)CC2)c(F)c1 | 171.1 to 171.3 °C |
| CCOc1c(F)c(F)c(N2CCC(O)(COc3ccc(F)c4c3CCC(=O)N4)CC2)c(F)c1F | 208.9 to 209.3 °C |
| CCOc1c(F)c(F)c(N2CCC(O)(COc3ccc(Cl)c4c3CCC(=O)N4)CC2)c(F)c1F | 174.4 to 174.5 °C |
| COCCOCCOc1ccc(N2CCC(O)(COc3ccc(F)c4c3CCC(=O)N4)CC2)c(F)c1 | 128.7 to 130.7 °C |
| CCOc1cc(N2CCC(O)(COc3ccc(Cl)c4c3CCC(=O)N4)CC2)c(F)cc1Cl | 228.1 to 229 °C |
| Cc1cc(Cl)cc(F)c1N1CCC(O)(COc2ccc(F)c3c2CCC(=O)N3)CC1 | 258.8 to 259 °C |
| CCOc1cc(F)c(N2CCC(O)(COc3ccc(F)c4c3CCC(=O)N4)CC2)cc1OC | 190.8 to 191.1 °C |
| CCOc1cc(F)c(N2CCC(O)(COc3ccc(F)c4c3CCC(=O)N4)CC2)c(F)c1 | 207.9 to 208.8 °C |
| CCOc1cc(F)c(N2CCC(O)(COc3ccc(Cl)c4c3CCC(=O)N4)CC2)c(F)c1 | 180.6 to 181 °C |
| O=C1CCc2c(OCC3(O)CCN(c4ccc5sccc5c4)CC3)ccc(F)c2N1 | 209.5 to 210.2 °C |
| O=C1CCc2c(OCC3(O)CCN(c4ccc5occc5c4)CC3)ccc(F)c2N1 | 215.7 to 216 °C |
| O=C1CCc2c(OCC3(O)CCN(c4ncc(Cl)cc4F)CC3)ccc(Cl)c2N1 | 174.4 to 175.8 °C |
| O=C1CCc2c(OCC3(O)CCN(c4ccc(OCc5ccc(Cl)cc5Cl)cc4F)CC3)ccc(F)c2N1 | 175.9 to 177.1 °C |
| CC(C)Oc1cc(N2CCC(O)(COc3ccc(F)c4c3CCC(=O)N4)CC2)c(F)cc1Cl | 216.7 to 217 °C |
| O=C1CCc2c(OCC3(O)CCN(c4cc(OCc5ccc(Cl)cc5)c(Cl)cc4F)CC3)ccc(F)c2N1 | 205.1 to 205.7 °C |
| CC(C)Oc1cc(N2CCC(O)(COc3ccc(Cl)c4c3CCC(=O)N4)CC2)c(F)cc1Cl | 173.3 to 173.5 °C |
| COCCOc1cc(N2CCC(O)(COc3ccc(F)c4c3CCC(=O)N4)CC2)c(F)cc1Cl | 170.6 to 170.8 °C |
| CN(C)CCOc1cc(N2CCC(O)(COc3ccc(F)c4c3CCC(=O)N4)CC2)c(F)cc1Cl | 162.9 to 164.1 °C |

| Compound | melting point |
| --- | --- |
| CCCOc1cc(N2CCC(O)(COc3ccc(F)c4c3CCC(=O)N4)CC2)c(F)cc1Cl | 200.7 to 201.4 °C |
| O=C1CCc2c(OCC3(O)CCN(c4cc(OCCOc5ccc(F)cc5)c(Cl)cc4F)CC3)ccc(F)c2N1 | 159.2 to 160 °C |
| CCCc1cc(N2CCC(O)(COc3ccc(F)c4c3CCC(=O)N4)CC2)c(F)cc1Cl | 196.5 to 196.6 °C |
| Cc1cc(N2CCC(O)(COc3ccc(Cl)c4c3CCC(=O)N4)CC2)c(F)cc1F | 195 to 195.2 °C |
| Cc1ccc(N2CCC(O)(COc3ccc(Cl)c4c3CCC(=O)N4)CC2)nc1C | 169.6 to 171 °C |
| CCc1cc(N2CCC(O)(COc3ccc(F)c4c3CCC(=O)N4)CC2)c(F)cc1Cl | 201.3 to 202.4 °C |
| COc1cc(N2CCC(O)(COc3ccc(Cl)c4c3CCC(=O)N4)CC2)c(F)cc1Cl | 228.7 to 228.9 °C |
| CCOc1cnc(N2CCC(O)(COc3ccc(F)c4c3CCC(=O)N4)CC2)c(Cl)c1 | 187.9 to 190.2 °C |
| O=C1CCc2c(OCC3(O)CCN(c4ncc(Br)cc4F)CC3)ccc(Cl)c2N1 | 231.2 to 233.5 °C |
| CSc1ccc(N2CCC(O)(COc3ccc(Cl)c4c3CCC(=O)N4)CC2)c(Cl)c1 | 160.7 to 160.9 °C |
| O=C1CCc2c(OCC3(O)CCN(c4cc5c(cc4F)OC(F)(F)O5)CC3)ccc(F)c2N1 | 226.6 to 226.7 °C |
| O=C1CCc2c(OCC3(O)CCN(c4ccc(Br)cc4F)CC3)ccc(Cl)c2N1 | 223.1 to 223.2 °C |
| O=C1CCc2c(OCC3(O)CCN(c4c(F)cc(Br)cc4F)CC3)ccc(Cl)c2N1 | 195.3 to 195.4 °C |
| CCc1cc(N2CCC(O)(COc3ccc(F)c4c3CCC(=O)N4)CC2)c(F)cc1F | 186.7 to 186.8 °C |
| CCCc1cc(N2CCC(O)(COc3ccc(Cl)c4c3CCC(=O)N4)CC2)c(F)cc1F | 156.9 to 157 °C |
| CCSc1cc(F)c(N2CCC(O)(COc3ccc(Cl)c4c3CCC(=O)N4)CC2)c(F)c1 | 157.4 to 157.5 °C |
| O=C1CCc2c(OCC3(O)CCN(c4ccc(OCc5ccc(C(F)(F)F)cn5)cc4F)CC3)ccc(F)c2N1 | 194.9 to 195.1 °C |
| O=C1CCc2c(OCC3(O)CCN(c4c(F)cc(OCC(F)(F)F)cc4F)CC3)ccc(Cl)c2N1 | 178.6 to 178.7 °C |
| O=C1CCc2c(OCC3(O)CCN(c4cc5c(cc4F)OC(F)(F)O5)CC3)cc(F)c(Cl)c2N1 | 249.4 to 250.5 °C (dec.) |
| O=C1CCc2c(OCC3(O)CCN(c4c(F)cc(Br)cc4F)CC3)cc(F)c(Cl)c2N1 | 200.5 to 200.8 °C |
| O=C1CCc2c(OCC3(O)CCN(c4nc5ccc(Cl)cc5o4)CC3)ccc(F)c2N1 | 249 to 250 °C |

| Compound | melting point |
| --- | --- |
| O=C1CCc2c(OC[C@]3(O)CCN(c4c(F)cc(Cl)cc4F)C[C@H]3O)ccc(Cl)c2N1 | 197 to 199 °C |
| O=C1CCc2c(OC[C@]3(O)CCN(c4cc(Cl)c(F)cc4Cl)C[C@H]3O)ccc(F)c2N1 | 216 to 216.3 °C |
| O=C1CCc2c(OC[C@]3(O)CCN(c4ccc(Cl)cc4Cl)C[C@H]3O)ccc(Cl)c2N1 | 184.1 to 185.1 °C |
| O=C1CCc2c(OC[C@]3(O)CCN(c4ccccc4F)C[C@H]3O)ccc(F)c2N1 | 177.7 to 178 °C |
| O=C1CCc2c(OC[C@]3(O)CCN(c4c(F)cc(Br)cc4F)C[C@H]3O)cc(F)c(F)c2N1 | 204.5 to 204.6 °C |
| O=C1CCc2c(OC[C@]3(O)CCN(c4c(F)cc(Br)cc4F)C[C@H]3O)cc(F)c(Cl)c2N1 | 199 to 199.6 °C |
| O=C1CCc2c(OC[C@]3(O)CCN(c4nc5ccccc5o4)C[C@H]3O)ccc(F)c2N1 | 190 to 191 °C |
| N#Cc1cc(F)ccc1N1CCC(O)(COc2ccc(F)c3c2CCC(=O)N3)CC1 | 206 to 206.9 °C |
| O=C1CCc2c(NCC3(O)CCN(c4ccc(Cl)cc4Cl)CC3)ccc(F)c2N1 | 226 to 227 °C |
| O=C1CCc2c(OCC3(O)CCN(c4ccc5ccccc5n4)CC3)ccc(F)c2N1 | 198 to 199 °C |
| O=C1CCc2c(OCC3(O)CCN(c4nccc5ccccc45)CC3)ccc(F)c2N1 | 198 to 199 °C |
| O=C1CCc2c(OCC3CCN(c4ncc(Cl)cc4Cl)CC3)ccc(Cl)c2N1 | 190 to 191 °C |
| COC1(COc2ccc(F)c3c2CCC(=O)N3)CCN(c2ncc(Cl)cc2Cl)CC1 | 181 to 182 °C |
| N#Cc1cc(F)ccc1N1CCC(COc2ccc(F)c3c2CCC(=O)N3)(ON)CC1 | 207 to 208 °C |
| N#CC1(COc2ccc(F)c3c2CCC(=O)N3)CCN(c2ncc(Cl)cc2Cl)CC1 | 218 °C |
| O=C1CCc2c(OCC3(O)CCN(c4cc(Cl)c(F)cc4Cl)CC3)ccc(F)c2N1 | 207.9 °C |
| CCNC(=O)O[C@@H]1CN(c2ccc(Cl)cc2F)CC[C@@]1(O)COc1ccc(F)c2c1CCC(=O)N2 | 156 to 157 °C |
| O=C1CCc2c(OCC3(O)CCN(c4ccc(C(F)(F)F)cc4)CC3)ccc(F)c2N1 | 216.1 °C |
| O=C1CCc2c(OCC3(O)CCN(c4cccnc4)CC3)ccc(F)c2N1 | 178.2 to 178.8 °C |
| O=C1CCc2c(OCC3(O)CCN(c4cc(F)c(Cl)cc4Cl)CC3)ccc(F)c2N1 | 198.7 to 198.9 °C |
| O=C1CCc2c(OCC3(O)CCN(c4ccc(Cl)c(Cl)c4)CC3)ccc(F)c2N1 | 230.9 to 231.2 °C |

| Compound | melting point |
| --- | --- |
| O=C1CCc2c(OCC3(O)CCN(c4ccsc4)CC3)ccc(F)c2N1 | 200.4 to 200.5 °C |
| O=C1CCc2c(OCC3(O)CCN(c4c(F)cccc4Cl)CC3)ccc(F)c2N1 | 212 to 213 °C |
| O=C1CCc2c(OCC3(O)CCN(c4cc(F)c(Cl)cc4F)CC3)ccc(F)c2N1 | 185.1 to 185.2 °C |
| O=C1CCc2c(OCC3(O)CCN(c4ccc(Cl)cc4Br)CC3)ccc(F)c2N1 | 204.9 °C |
| COc1cc(N2CCC(O)(COc3ccc(F)c4c3CCC(=O)N4)CC2)ccc1Cl | 222.6 to 222.7 °C |
| O=C1CCc2c(OCC3(O)CCN(c4c(Cl)cccc4Cl)CC3)ccc(F)c2N1 | 203.6 to 203.8 °C |
| CCOc1ccc(N2CCC(O)(COc3ccc(F)c4c3CCC(=O)N4)CC2)cc1 | 198.8 to 199.1 °C |
| CC(C)c1ccc(N2CCC(O)(COc3ccc(F)c4c3CCC(=O)N4)CC2)cc1 | 194.9 to 195 °C |
| O=C1CCc2c(OCC3(O)CCN(c4ccc(Oc5ccccc5)cc4)CC3)ccc(F)c2N1 | 186.9 to 187.2 °C |
| O=C1CCc2c(OCC3(O)CCN(c4cc(OC(F)(F)F)ccc4Cl)CC3)ccc(F)c2N1 | 190.4 to 190.5 °C |
| CCc1ccccc1N1CCC(O)(COc2ccc(F)c3c2CCC(=O)N3)CC1 | 178.6 to 179.3 °C |
| Cc1cc(N2CCC(O)(COc3ccc(F)c4c3CCC(=O)N4)CC2)ccc1Cl | 216.1 to 216.3 °C |
| CCOC(=O)c1cc(N2CCC(O)(COc3ccc(F)c4c3CCC(=O)N4)CC2)ccc1Cl | 148 °C |
| Cc1ccc(N2CCC(O)(COc3ccc(F)c4c3CCC(=O)N4)CC2)cc1 | 181 °C |
| O=C1CCc2c(OCC3(O)CCN(c4ccc(Cl)cc4[N+](=O)[O-])CC3)ccc(F)c2N1 | 188 to 189 °C |
| CCCOc1ccc(N2CCC(O)(COc3ccc(F)c4c3CCC(=O)N4)CC2)c(F)c1 | 185.1 to 185.9 °C |
| CCCc1ccc(N2CCC(O)(COc3ccc(F)c4c3CCC(=O)N4)CC2)c(Cl)c1 | 197.5 to 197.6 °C |
| CC(C)Oc1ccc(N2CCC(O)(COc3ccc(F)c4c3CCC(=O)N4)CC2)c(F)c1 | 191.9 to 192.2 °C |
| O=C1CCc2c(OCC3(O)CCN(c4ccc(OC(F)(F)F)cc4Cl)CC3)ccc(F)c2N1 | 181.8 to 181.9 °C |
| O=C1CCc2c(OCC3(O)CCN(c4cc(OC(F)(F)F)c(Cl)cc4Cl)CC3)ccc(F)c2N1 | 254.8 to 254.9 °C |
| COc1ccc(N2CCC(O)(COc3ccc(F)c4c3CCC(=O)N4)CC2)c(F)c1 | 201.3 to 201.9 °C |
